Experimental data published in ChEMBL document CHEMBL4732098, “Alkylated monoterpene indole alkaloid derivatives as potent P-glycoprotein inhibitors in resistant cancer cells” (Eur J Med Chem, 2021).

Tests used:
L5178Y [1] = test: Cytotoxicity against mouse L5178Y cells assessed as reduction in cell viability incubated for 24 hrs by MTT assay; format: cell-based
L5178Y [2] = test: Cytotoxicity against mouse L5178Y cells transfected with human ABCB1 assessed as reduction in cell viability incubated for 24 hrs by MTT assay; format: cell-based
COLO 205 = test: Cytotoxicity against human COLO 205 cells assessed as reduction in cell viability incubated for 24 hrs by MTT assay; format: cell-based; conditions: COLO 205, 24 h
COLO 320 [3] = test: Cytotoxicity against human COLO 320 cells assessed as reduction in cell viability incubated for 24 hrs by MTT assay; format: cell-based; conditions: COLO 320, 24 h
L5178Y [4] = test: Synergistic cytotoxicity against mouse L5178Y cells transfected with human ABCB1 assessed as combination index measured after 72 hrs in presence doxorubicin by MTT assay based Chou-Talalay method; format: functional
COLO 320 [5] = test: Synergistic cytotoxicity against human resistant COLO 320 cells assessed as combination index measured after 72 hrs in presence doxorubicin by MTT assay based Chou-Talalay method; format: functional; conditions: dose 2 µM

Row | Structure (SMILES) | IC50 (L5178Y [1]) | IC50 (L5178Y [2]) | IC50 (COLO 205) | IC50 (COLO 320 [3]) | CI (L5178Y [4]) | CI (COLO 320 [5])
1 | CCCn1c2c(c3ccccc31)C[C@H]1C(C(=O)OC)[C@H](CC2=O)[C@@H](CC)CN1C (some centres undefined) | 45.1 µM | 34.7 µM | 25.2 µM | 40.5 µM | <1 | –
2 | CC[C@H]1CN(C)[C@H]2Cc3c(n(Cc4ccc(Br)cc4)c4ccccc34)C(=O)C[C@H]1C2C(=O)OC (some centres undefined) | 34.7 µM | 38.5 µM | 28.4 µM | 24.8 µM | <1 | –
3 | CC[C@@H]1CN(C)[C@H]2Cc3c(n(Cc4ccccn4)c4ccccc34)C(=O)C[C@H]1C2C(=O)OC (some centres undefined) | 97.6 µM | > 100 µM | > 100 µM | > 100 µM | – | –
4 | CCCn1c2c(c3ccccc31)C[C@H]1C(C(=O)OC)[C@H](CC2=O)[C@H](CC)CN1C (some centres undefined) | 35.1 µM | 48.5 µM | > 100 µM | > 100 µM | <1 | –
5 | CC[C@@H]1CN(C)[C@H]2Cc3c(n(CCc4cccc(Br)c4)c4ccccc34)C(=O)C[C@H]1C2C(=O)OC (some centres undefined) | 39.6 µM | 85.6 µM | > 100 µM | 94.8 µM | <1 | –
6 | CC[C@@H]1CN(C)[C@H]2Cc3c(n(Cc4ccc(OC)cc4)c4ccccc34)C(=O)C[C@H]1C2C(=O)OC (some centres undefined) | 86 µM | 80.1 µM | 90.6 µM | 76.8 µM | – | –
7 | CC[C@@H]1CN(C)[C@H]2Cc3c(n(CCc4ccc(Br)cc4)c4ccccc34)C(=O)C[C@H]1C2C(=O)OC (some centres undefined) | 71 µM | 59.3 µM | > 100 µM | > 100 µM | <1 | –
8 | C=CCn1c2c(c3ccccc31)C[C@H]1C(C(=O)OC)[C@H](CC2=O)[C@H](CC)CN1C (some centres undefined) | 64.2 µM | 96.6 µM | > 100 µM | > 100 µM | – | –
9 | CC[C@H]1CN(C)[C@H]2Cc3c(n(Cc4ccc(Cl)cc4)c4ccccc34)C(=O)C[C@H]1C2C(=O)OC (some centres undefined) | 32.4 µM | 24.1 µM | 15.9 µM | 23.4 µM | <1 | –
10 | CC[C@@H]1CN(C)[C@H]2Cc3c(n(Cc4ccc(Cl)cc4)c4ccccc34)C(=O)C[C@H]1C2C(=O)OC (some centres undefined) | 48.3 µM | 43.2 µM | 55.5 µM | 61.3 µM | <1 | –
11 | CC[C@@H]1CN(C)[C@H]2Cc3c(n(Cc4ccccc4C)c4ccccc34)C(=O)C[C@H]1C2C(=O)OC (some centres undefined) | 42.2 µM | 61 µM | > 100 µM | 97.5 µM | <1 | –
12 | CC[C@@H]1CN(C)[C@H]2Cc3c(n(Cc4ccc(C(=O)c5ccccc5)cc4)c4ccccc34)C(=O)C[C@H]1C2C(=O)OC (some centres undefined) | 89.3 µM | > 100 µM | > 100 µM | > 100 µM | – | –
13 | CC[C@@H]1CN(C)[C@H]2Cc3c(n(Cc4ccc(Br)cc4)c4ccccc34)C(=O)C[C@H]1C2C(=O)OC (some centres undefined) | 36.4 µM | 45 µM | 39.7 µM | 45.7 µM | <1 | –
14 | CC[C@@H]1CN(C)[C@H]2Cc3c(n(Cc4cc(OC)cc(OC)c4)c4ccccc34)C(=O)C[C@H]1C2C(=O)OC (some centres undefined) | 27.8 µM | 39.1 µM | > 100 µM | > 100 µM | <1 | –
15 | CC[C@@H]1CN(C)[C@H]2Cc3c(n(Cc4cccc(C)c4)c4ccccc34)C(=O)C[C@H]1C2C(=O)OC (some centres undefined) | 41.9 µM | 52.8 µM | 93.6 µM | 82.2 µM | <1 | –
16 | CC[C@@H]1CN(C)[C@H]2Cc3c(n(Cc4cccc([N+](=O)[O-])c4)c4ccccc34)C(=O)C[C@H]1C2C(=O)OC (some centres undefined) | 63.1 µM | 58.9 µM | > 100 µM | > 100 µM | <1 | –
17 | CC[C@@H]1CN(C)[C@H]2Cc3c(n(Cc4ccc([N+](=O)[O-])cc4)c4ccccc34)C(=O)C[C@H]1C2C(=O)OC (some centres undefined) | 63.3 µM | 81 µM | > 100 µM | 86.2 µM | – | –
18 | CC[C@@H]1CN(C)[C@H]2Cc3c(n(CCc4ccc(OC)cc4)c4ccccc34)C(=O)C[C@H]1C2C(=O)OC (some centres undefined) | 25.5 µM | 37.2 µM | 80 µM | 49 µM | <1 | <1
19 | CC[C@@H]1CN(C)[C@H]2Cc3c(n(CC)c4ccccc34)C(=O)C[C@H]1C2C(=O)OC (some centres undefined) | 69.4 µM | 74.4 µM | > 100 µM | > 100 µM | – | –
20 | CC[C@@H]1CN(C)[C@H]2Cc3c(n(CCc4cccc(OC)c4)c4ccccc34)C(=O)C[C@H]1C2C(=O)OC (some centres undefined) | 40.6 µM | 78.4 µM | > 100 µM | > 100 µM | <1 | –
21 | CC[C@H]1CN(C)[C@H]2Cc3c(n(Cc4ccc(OC)cc4)c4ccccc34)C(=O)C[C@H]1C2C(=O)OC (some centres undefined) | 50.7 µM | 35.6 µM | 58.9 µM | 60.3 µM | <1 | <1
22 | CC[C@@H]1CN(C)[C@H]2Cc3c([nH]c4ccccc34)C(=O)C[C@H]1C2C(=O)OC (some centres undefined) | 55.9 µM | 78.8 µM | > 100 µM | > 100 µM | – | –
23 | CC[C@H]1CN(C)[C@H]2Cc3c(n(CC)c4ccccc34)C(=O)C[C@H]1C2C(=O)OC (some centres undefined) | 66.3 µM | 48.4 µM | > 100 µM | > 100 µM | <1 | –
24 | CC[C@@H]1CN(C)[C@H]2Cc3c(n(Cc4cccc(Cl)c4)c4ccccc34)C(=O)C[C@H]1C2C(=O)OC (some centres undefined) | 38.4 µM | 38.1 µM | > 100 µM | 74.7 µM | <1 | –
25 | CC[C@@H]1CN(C)[C@H]2Cc3c(n(CCCO)c4ccccc34)C(=O)C[C@H]1C2C(=O)OC (some centres undefined) | > 100 µM | > 100 µM | > 100 µM | > 100 µM | – | –
26 | CC[C@@H]1CN(C)[C@H]2Cc3c(n(Cc4ccc(C)cc4)c4ccccc34)C(=O)C[C@H]1C2C(=O)OC (some centres undefined) | 31.8 µM | 37.1 µM | 11.8 µM | 53 µM | <1 | <1
27 | CC[C@@H]1CN(C)[C@H]2Cc3c(n(Cc4cccc(OC)c4)c4ccccc34)C(=O)C[C@H]1C2C(=O)OC (some centres undefined) | 42.1 µM | 36.7 µM | 88.4 µM | 84.4 µM | <1 | –
28 | CC[C@H]1CN(C)[C@H]2Cc3c([nH]c4ccccc34)C(=O)C[C@H]1C2C(=O)OC (some centres undefined) | 62.5 µM | 91.8 µM | 40.4 µM | 71.6 µM | – | –
